Columns and labels:
[1] = target: T1, GSK-3β (AA 1–420) (Homo sapiens, UniProt P49841); test: GSK-3 inhibition assay (coupled enzyme system); assay type: biochemical; details: read-out: GSK3 Inhibitory Activity (Ki class)
T1 construct: GSK-3β (AA 1–420)
How it was run: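 ADP production read via pyruvate kinase/lactate dehydrogenase–coupled NADH consumption over 10 min at 30 °C. Ki derived from rates versus inhibitor concentration.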

[2] = target: T2, Aurora-2 (Homo sapiens, UniProt O14965); test: Aurora-2 inhibition assay (coupled enzyme assay); assay type: biochemical
T2 sequence (O14965 1-403): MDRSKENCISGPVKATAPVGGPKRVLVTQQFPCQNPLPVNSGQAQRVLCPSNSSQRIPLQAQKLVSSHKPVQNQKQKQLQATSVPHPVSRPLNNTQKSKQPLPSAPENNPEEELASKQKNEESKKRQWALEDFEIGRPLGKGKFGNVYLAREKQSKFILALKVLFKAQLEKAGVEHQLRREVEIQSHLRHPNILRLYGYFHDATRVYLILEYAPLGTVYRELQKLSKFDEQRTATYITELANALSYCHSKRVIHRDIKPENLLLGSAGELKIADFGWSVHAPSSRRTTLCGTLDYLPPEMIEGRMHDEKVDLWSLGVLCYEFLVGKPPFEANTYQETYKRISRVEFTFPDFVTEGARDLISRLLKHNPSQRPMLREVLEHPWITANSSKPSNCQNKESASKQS
Experimental: Compounds were screened in the following manner for their ability to inhibit Aurora-2 using a standard coupled enzyme assay (Fox et al (1998) Protein Sci 7, 2249).
To an assay stock buffer solution containing 0.1M HEPES 7.5, 10 mM MgCl2, 1 mM DTT, 25 mM NaCl, 2.5 mM phosphoenolpyruvate, […], 30 mg/ml pyruvate kinase, 10 mg/ml lactate dehydrogenase, […], and 800 μM peptide (LRRASLG, American Peptide, Sunnyvale, Calif.) was added a DMSO solution of a compound of the present invention to a final concentration of 30 μM. The resulting mixture was incubated at 30° C. for 10 min. The reaction was initiated by the addition of 10 μL of Aurora-2 stock solution to give a final concentration of 70 nM in the assay. The rates of reaction were obtained by monitoring absorbance at 340 nm over a 5 minute read time at 30° C. using a BioRad Ultramark plate reader (Hercules, Calif.). The Ki values were determined from the rate data as a function of inhibitor concentration.

[3] = tested on: Colon cancer cells (HT-29 cell line); test: ERK2 inhibition: cell proliferation assay (3H-thymidine uptake); assay type: cell-based; details: Homo sapiens, 3 days
Experimental: Compounds may be assayed for the inhibition of ERK2 by a cell proliferation assay. […] Colon cancer cells (HT-29 cell line) are added to each of 84-wells of a 96 well plate at a seeding density of 10,000 cells/well/150 μL. The cells are allowed to attach to the plate by incubating at 37° C. for 2 hours. […] The test compound solution (50 μL) is added to each of 72 cell-containing wells. To the 12 remaining cell-containing wells, only complete media (200 μL) is added to form a control group in order to measure maximal proliferation. To the remaining 12 empty wells, complete media is added to form a vehicle control group in order to measure background. The plates are incubated at 37° C. for 3 days. A stock solution of ^3H-thymidine (1 mCi/mL, New England Nuclear, Boston, Mass.) is diluted to 20 μCi/mL in RPMI medium then 20 μL of this solution is added to each well. The plates are further incubated at 37° C. for 8 hours then harvested and analyzed for ^3H-thymidine uptake using a liquid scintillation counter.

[4] = target: AKT3 (Homo sapiens, UniProt Q9Y243); test: AKT3 inhibition assay (coupled enzyme assay); assay type: biochemical
Experimental: Compounds were screened for their ability to inhibit AKT3 using a standard coupled enzyme assay (Fox et al., Protein Sci., (1998) 7, 2249). Assays were carried out in a mixture of 100 mM HEPES 7.5, 10 mM MgCl2, 25 mM NaCl , 1 mM DTT and 1.5% DMSO. Final substrate concentrations in the assay were 170 μM ATP (Sigma Chemicals) and 200 μM peptide (RPRAATF, American Peptide, Sunnyvale, Calif.). Assays were carried out at 30° C. and 45 nM AKT3. Final concentrations of the components of the coupled enzyme system were 2.5 mM phosphoenolpyruvate, 300 μM NADH, 30 μg/ML pyruvate kinase and 10 μg/ml lactate dehydrogenase.
An assay stock buffer solution was prepared containing all of the reagents listed above, with the exception of AKT3, DTT, and the test compound of interest. 56 μl of the stock solution was placed in a 384 well plate followed by addition of 1 μl of 2 mM DMSO stock containing the test compound (final compound concentration 30 μM). The plate was preincubated for about 10 minutes at 30° C. and the reaction initiated by addition of 10 μl of enzyme (final concentration 45 nM) and 1 mM DTT. Rates of reaction were obtained using a BioRad Ultramark plate reader (Hercules, Calif.) over a 5 minute read time at 30° C.

[5] = target: ERK2 (Homo sapiens, UniProt P28482); test: ERK2 inhibition assay (spectrophotometric coupled-enzyme assay); assay type: biochemical; details: read-out: ERK2 Inhibitory Activity (Ki class D-F)
Experimental: The IC50 was evaluated from the rate data as a function of inhibitor concentration. […] The compound numbers correspond to the compound numbers in Table 1.

ERK2, sequence (P28482 whole entry): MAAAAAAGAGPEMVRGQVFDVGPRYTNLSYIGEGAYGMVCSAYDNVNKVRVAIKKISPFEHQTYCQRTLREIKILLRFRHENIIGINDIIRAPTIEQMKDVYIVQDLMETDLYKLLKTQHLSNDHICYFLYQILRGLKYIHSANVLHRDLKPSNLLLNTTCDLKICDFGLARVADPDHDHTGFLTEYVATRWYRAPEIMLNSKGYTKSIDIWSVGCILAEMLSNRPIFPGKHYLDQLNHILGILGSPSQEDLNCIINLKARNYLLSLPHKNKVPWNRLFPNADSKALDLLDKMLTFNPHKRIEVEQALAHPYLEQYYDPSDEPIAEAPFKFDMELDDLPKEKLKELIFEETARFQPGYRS
T1 sequence (P49841 whole entry, species assumed, the tested form may be a part): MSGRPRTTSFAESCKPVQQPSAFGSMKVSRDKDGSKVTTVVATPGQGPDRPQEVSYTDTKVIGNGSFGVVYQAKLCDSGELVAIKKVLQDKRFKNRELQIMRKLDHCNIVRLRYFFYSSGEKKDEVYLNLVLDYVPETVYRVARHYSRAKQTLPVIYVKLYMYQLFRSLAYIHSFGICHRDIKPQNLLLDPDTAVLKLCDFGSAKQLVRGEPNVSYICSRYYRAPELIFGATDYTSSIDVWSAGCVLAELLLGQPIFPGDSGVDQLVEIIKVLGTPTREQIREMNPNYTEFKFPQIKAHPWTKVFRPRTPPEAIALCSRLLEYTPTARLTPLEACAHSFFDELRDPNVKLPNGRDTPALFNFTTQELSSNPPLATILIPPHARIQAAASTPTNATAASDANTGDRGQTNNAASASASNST
AKT3, sequence (Q9Y243 whole entry, species assumed): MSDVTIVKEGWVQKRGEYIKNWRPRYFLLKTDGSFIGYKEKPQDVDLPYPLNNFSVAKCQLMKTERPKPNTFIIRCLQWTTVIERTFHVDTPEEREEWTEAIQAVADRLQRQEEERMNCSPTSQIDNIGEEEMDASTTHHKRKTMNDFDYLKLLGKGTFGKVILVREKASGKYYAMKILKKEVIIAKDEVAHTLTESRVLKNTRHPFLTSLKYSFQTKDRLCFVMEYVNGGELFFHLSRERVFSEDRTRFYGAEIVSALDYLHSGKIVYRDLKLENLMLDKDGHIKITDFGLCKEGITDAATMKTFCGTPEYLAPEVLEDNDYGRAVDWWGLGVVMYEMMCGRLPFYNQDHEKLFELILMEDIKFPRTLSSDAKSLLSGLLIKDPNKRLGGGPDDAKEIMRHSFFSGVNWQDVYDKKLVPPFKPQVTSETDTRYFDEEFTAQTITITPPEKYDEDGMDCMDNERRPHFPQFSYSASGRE

Compound | Ki [1] | found to inhibit Aurora-2 [2] | IC50 [3] | inhibit AKT3 [4] | Ki [5]
Cc1cnc(Nc2cccc(F)c2)nc1-c1c[nH]c(C(=O)NC(CO)c2ccccc2)c1 (stereo not drawn) [III-a-136, 4-[2-(3-Fluoro-phenylamino)-5-methyl-pyrimidin-4-yl]-1H-pyrrole-2-carboxylic acid (2-hydroxy-1-phenyl-ethyl)-amide] | < 100 nM | found to inhibit Aurora-2 | < 100 nM | – | –
Cc1cnc(NC#N)nc1-c1c[nH]c(C(=O)NC(CO)c2ccccc2)c1 (stereo not drawn) [III-a-238, 4-(2-Cyanoamino-5-methyl-pyrimidin-4-yl)-1H-pyrrole-2-carboxylic acid (2-hydroxy-1-phenyl-ethyl)-amide] | – | – | – | inhibit AKT3 | < 100 nM
Cc1cnc(Nc2ccc3c(c2)OCO3)nc1-c1c[nH]c(C(=O)NC(CO)c2ccccc2)c1 (stereo not drawn) [III-a-139, 4-[2-(Benzo[1,3]dioxol-5-ylamino)-5-methyl-pyrimidin-4-yl]-1H-pyrrole-2-carboxylic acid (2-hydroxy-1-phenyl-ethyl)-amide] | < 100 nM | found to inhibit Aurora-2 | < 100 nM | – | < 100 nM

From patent US7253187B2, “Heterocyclic inhibitors of ERK2 and uses thereof” (Vertex Pharmaceuticals Incorporated, priority 2001, dated 2007)
